Measured values reported in ChEMBL document CHEMBL6127051, “Hydrazinecarboxamides: Comprehensive review of their anticancer, anticonvulsive, anti-inflammatory, enzyme inhibition, antioxidant and other activities” (Eur J Med Chem, 2024).
pEC50, pIC50: −log10 of the molar value.

What was measured:
[1] = tested on: Mus musculus; test: Anticonvulsant activity in ip dosed MES induced Kunming mouse seizure model; type: functional
[2] = tested on: MCF7; test: Cytotoxicity against human MCF7 cells assessed as reduction in cell growth; type: functional, cell-based
[3] = Antioxidant activity assessed as DPPH radical scavenging activity at 10 ug/ml; type: functional; settings: dose 10.0 µg/ml
[4] = tested on: MCF7; test: Antiproliferative activity against human MCF7 cells assessed as reduction in cell viability measured for 72 hrs by MTT assay; type: functional, cell-based; settings: MCF7, 72 h
[5] = tested on: MCF7; test: Anticancer activity against human MCF7 cells assessed as reduction in cell growth measured after 3 days by MTT assay; type: functional, cell-based; settings: MCF7, 72 h
[6] = Inhibition of Escherichia coli beta-glucuronidase
[7] = tested on: MCF7; test: Antiproliferative activity against human MCF7 cells; type: functional, cell-based
[8] = tested on: MDA-MB-231; test: Antiproliferative activity against human MDA-MB-231 cells; type: functional, cell-based
[9] = tested on: Mus musculus; test: Anticonvulsant activity in ip dosed scPTZ induced Kunming mouse seizure model; type: functional
[10] = tested on: A549; test: Antiproliferative activity against human A549 cells assessed as reduction in cell viability measured for 24 hrs by MTT assay; settings: A549, 24 h
[11] = tested on: HepG2; test: Antiproliferative activity against human HepG2 cells assessed as reduction in cell viability measured for 24 hrs by MTT assay; settings: HepG2, 24 h
[12] = molecular target: T1, Retinoic acid receptor RXR-alpha (Homo sapiens, UniProt P19793); test: Antagonist activity at RXRalpha (unknown origin) by Alpha Screen assay
T1 sequence (P19793 whole entry): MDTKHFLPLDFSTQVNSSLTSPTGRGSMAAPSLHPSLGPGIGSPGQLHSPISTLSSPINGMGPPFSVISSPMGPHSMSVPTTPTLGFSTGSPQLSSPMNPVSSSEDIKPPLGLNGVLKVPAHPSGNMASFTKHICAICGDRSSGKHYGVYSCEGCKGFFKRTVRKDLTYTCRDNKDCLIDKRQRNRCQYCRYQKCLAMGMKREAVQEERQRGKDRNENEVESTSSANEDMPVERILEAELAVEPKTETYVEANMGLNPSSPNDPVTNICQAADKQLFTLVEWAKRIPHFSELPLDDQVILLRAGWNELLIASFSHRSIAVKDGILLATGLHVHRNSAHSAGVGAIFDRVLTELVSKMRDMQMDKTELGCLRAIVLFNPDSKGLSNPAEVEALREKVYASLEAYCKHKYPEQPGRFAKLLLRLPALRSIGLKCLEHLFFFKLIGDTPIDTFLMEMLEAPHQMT

[13] = molecular target: Cholinesterase (Equus caballus, UniProt P81908); test: Inhibition of equine serum BChE using butyrylthiocholine iodide as substrate measured after 15 mins by Ellman's method
Sequence of Cholinesterase (P81908 whole entry): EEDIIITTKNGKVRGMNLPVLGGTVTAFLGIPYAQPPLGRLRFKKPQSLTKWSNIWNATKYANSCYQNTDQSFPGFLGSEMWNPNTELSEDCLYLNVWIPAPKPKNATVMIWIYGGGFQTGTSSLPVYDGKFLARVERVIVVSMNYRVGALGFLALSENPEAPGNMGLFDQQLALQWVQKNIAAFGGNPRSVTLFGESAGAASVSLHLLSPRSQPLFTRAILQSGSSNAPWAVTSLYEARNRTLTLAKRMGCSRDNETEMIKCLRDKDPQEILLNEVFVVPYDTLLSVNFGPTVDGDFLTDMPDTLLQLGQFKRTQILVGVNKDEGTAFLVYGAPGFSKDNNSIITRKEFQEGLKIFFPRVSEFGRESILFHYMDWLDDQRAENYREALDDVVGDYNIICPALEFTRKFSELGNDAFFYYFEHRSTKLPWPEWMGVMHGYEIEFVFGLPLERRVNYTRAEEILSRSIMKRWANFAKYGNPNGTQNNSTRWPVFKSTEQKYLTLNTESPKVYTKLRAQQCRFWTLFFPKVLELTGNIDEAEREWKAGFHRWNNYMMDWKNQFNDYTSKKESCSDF

[14] = tested on: A549; test: Antiproliferative activity against human A549 cells assessed as reduction in cell viability incubated for 72 hrs by MTT assay; type: functional, cell-based; settings: A549, 72 h
[15] = tested on: NCI-H23; test: Antiproliferative activity against human NCI-H23 cells assessed as reduction in cell viability incubated for 72 hrs by MTT assay; type: functional, cell-based; settings: NCI-H23, 72 h
[16] = tested on: WI-38; test: Antiproliferative activity against human WI-38 cells assessed as reduction in cell viability; type: functional, cell-based
[17] = tested on: A549; test: Antiproliferative activity against human A549 cells; type: functional, cell-based
[18] = tested on: A549; test: Antiproliferative activity against human A549 cells assessed as reduction in cell viability by MTT assay; type: functional, cell-based
[19] = tested on: MCF7; test: Antiproliferative activity against human MCF7 cells assessed as reduction in cell viability incubated for 72 hrs by MTT assay; type: functional, cell-based; settings: MCF7, 72 h
[20] = Antioxidant activity assessed as ABTS radical scavenging activity after 30 mins by spectrophotometric analysis; type: functional
[21] = tested on: MCF7; test: Antiproliferative activity against human MCF7 cells by MTT assay; type: functional, cell-based
[22] = tested on: NCI-H460; test: Antiproliferative activity against human NCI-H460 cells by MTT assay; type: functional, cell-based
[23] = tested on: A549; test: Anticancer activity against human A549 cells assessed as inhibition of cell growth at 3 uM incubated for 48 hrs by MTT assay relative to control; type: functional; set-up: scale not given: the % may be the effect or the level left
[24] = tested on: PC-3; test: Anticancer activity against human PC-3 cells assessed as inhibition of cell growth at 3 uM incubated for 48 hrs by MTT assay relative to control; type: functional; set-up: scale not given: the % may be the effect or the level left
[25] = tested on: Mus musculus; test: Anticonvulsant activity in po dosed scPTZ induced mouse model measured after 4 hrs; type: functional
[26] = tested on: UO-31; test: Antiproliferative activity against human UO-31 cells assessed as inhibition of cell growth at 10 uM relative to control; type: functional; set-up: scale not given: the % may be the effect or the level left
[27] = tested on: MCF7; test: Anticancer activity against human MCF7 cells assessed as reduction in cell growth incubated for 24 hrs by MTT assay; type: functional, cell-based; settings: MCF7, 24 h

COc1cc(C(=O)NN2C(=O)C(=O)N(Cc3ccccc3)C2=O)cc2c1OCCO2
ED50 [1]: 13.7 mg/kg

O=C(NNC(=O)n1nnc2ccccc21)NOC(=O)c1ccccc1
pIC50 [2]: 4.10

Cc1ccc(N(C(=O)CNN2C(=O)C(=O)N(C(C)C)C2=O)C2(C(N)=O)CCCCC2)cc1
ED50 [1]: 44.5 mg/kg

COc1ccc(/C=C2\N=C(C)N(NC(=O)N3c4ccccc4C=Cc4ccccc43)C2=O)cc1
Activity [3]: 73.9%

COc1cc(/C=C2\N=C(C)N(NC(=O)N3c4ccccc4C=Cc4ccccc43)C2=O)cc(OC)c1OC
Activity [3]: 73.9%

O=C(NNC(=O)c1cc2ccccc2[nH]1)NC1CCCCC1
pIC50 [4]: 5.92

COc1cc(NC(C)CCCNC(=O)NNC(=O)/C=C/c2cc(OC)c(OC)c(OC)c2)c2ncccc2c1 (stereo not given)
pIC50 [5]: 7.52

COc1ccc(NC(=O)NNC(=O)CCc2ccccc2OC)cc1
pIC50 [6]: 4.81

COc1cc(NC(C)CCCNC(=O)NNC(=O)/C=C/c2ccc(Cl)cc2)c2ncccc2c1 (stereo not given)
pIC50 [5]: 7.52

Cc1ccc(NC(=O)NNC(=O)c2cc3ccccc3[nH]2)cc1
pIC50 [7]: 5.04 | pIC50 [4]: 5.92 | pIC50 [8]: 5.04

COc1cc(NC(C)CCCNC(=O)NNC(=O)/C=C/c2ccccc2)c2ncccc2c1 (stereo not given)
pIC50 [5]: 7.52

CCOC(=O)C1(NC(=O)NNc2ccc(F)cc2)CC1(C)C (stereo not given)
ED50 [9]: 9.2 mg/kg

O=C(NCCc1ccccc1)NNC(=O)c1ccc(Nc2nccc(-c3ccncc3)n2)cc1
pIC50 [10]: 5.08 | pIC50 [11]: 5.66 | pEC50 [12]: 5.98

CCCCCCCCCCCCCNC(=O)NNC(=O)c1cccc(Br)c1
pIC50 [13]: 4.66

COc1cccc(NC(=O)NNC(=O)c2oc3ccccc3c2CN2CCOCC2)c1
pIC50 [14]: 5.82 | pIC50 [15]: 5.83 | pIC50 [16]: 4.89

COc1cc(C(=O)NN2C(=O)C(=O)N(C(C)C)C2=O)cc2c1OCCO2
ED50 [1]: 7.6 mg/kg

COc1cc(NC(C)CCCNC(=O)NNC(=O)NC2CCCC2)c2ncccc2c1 (stereo not given)
pIC50 [17]: 5.82 | pIC50 [18]: 5.40 | pIC50 [19]: 6.00

COc1cc(NC(C)CCCNC(=O)NNC(=O)/C=C/c2ccc(OC)c(OC)c2)c2ncccc2c1 (stereo not given)
pIC50 [5]: 7.52

O=C(NNC(=S)NCc1ccccc1)c1ccc(Nc2nccc(-c3ccccn3)n2)cc1
pIC50 [10]: 5.08 | pIC50 [11]: 5.66 | pEC50 [12]: 5.98

O=C(Cn1c(Cc2ccccc2)nc2ccccc21)NNC(=O)Nc1ccccc1
Activity [20]: 126%

O=C(NNC(=O)n1nnc2ccccc21)NC(=O)c1ccccc1
pIC50 [2]: 4.10

Cc1nc(-c2cccnc2)ccc1C(=O)NNC(=O)Nc1ccc(F)cc1F
pIC50 [21]: 5.05 | pIC50 [22]: 5.05

COc1cc(NC(C)CCCNC(=O)NNC(=O)NCCc2ccccc2)c2ncccc2c1 (stereo not given)
pIC50 [17]: 5.82 | pIC50 [18]: 5.40 | pIC50 [19]: 6.00

COc1cc(NC(C)CCCNC(=O)NNC(=O)NC(c2ccccc2)c2ccccc2)c2ncccc2c1 (stereo not given)
pIC50 [17]: 5.82 | pIC50 [18]: 5.40 | pIC50 [19]: 6.00

COc1cc(NC(C)CCCNC(=O)NNC(=O)/C=C/c2ccccc2F)c2ncccc2c1 (stereo not given)
pIC50 [5]: 7.52

COc1ccc(CC(=O)NNC(=O)Nc2ccccc2OC)cc1
pIC50 [6]: 4.77

CCCCCCCCCCCCCCCNC(=O)NNC(=O)c1ccc(C(F)(F)F)cc1
pIC50 [13]: 4.24

COc1ccc(C(C)(C)C)cc1NC(=O)NNC1=NS(=O)(=O)c2ccccc2N1c1ccccc1
Activity [23]: 99% | Activity [24]: >=71%

CC1(C)CC12NC(=O)N(Nc1ccc(F)cc1)C2=O (stereo not given)
ED50 [25]: 61.8 mg/kg

COc1ccc(/C=C2\N=C(C)N(NC(=O)N3c4ccccc4C=Cc4ccccc43)C2=O)c(OC)c1
Activity [3]: 73.9%

O=C(NNC1=NS(=O)(=O)c2ccccc2N1c1ccccc1)Nc1cc(C(F)(F)F)cc(C(F)(F)F)c1
Activity [23]: 99% | Activity [24]: >=71%

CC1=N/C(=C\c2ccc([N+](=O)[O-])cc2)C(=O)N1NC(=O)N1c2ccccc2C=Cc2ccccc21
Activity [3]: 73.9%

CCOC(=O)C1(NC(=O)NNc2ccc(F)c(Cl)c2)CC1(C)C (stereo not given)
ED50 [9]: 58.1 mg/kg

O=C(NNC(=O)n1nnc2ccccc21)NC(c1ccccc1)c1ccccc1
pIC50 [2]: 4.10

COc1cc(NC(C)CCCNC(=O)NNC(=O)/C=C/c2cc(C(F)(F)F)cc(C(F)(F)F)c2)c2ncccc2c1 (stereo not given)
pIC50 [5]: 7.52

O=C(NNC(=O)n1nnc2ccccc21)NC1CCCC1
pIC50 [2]: 4.10

CC1=N/C(=C\c2ccc(Cl)cc2)C(=O)N1NC(=O)N1c2ccccc2C=Cc2ccccc21
Activity [3]: 73.9%

COc1ccc(/C=C/C(=O)NNC(=O)NCCCC(C)Nc2cc(OC)cc3cccnc23)cc1 (stereo not given)
pIC50 [5]: 7.52

O=C(NCCc1ccccc1)NNC(=O)n1nnc2ccccc21
pIC50 [2]: 4.10

CC(C)(C)NC(=O)NNC(=O)c1ccc(Nc2nccc(-c3ccncc3)n2)cc1
pIC50 [10]: 5.08 | pIC50 [11]: 5.66 | pEC50 [12]: 5.98

CC1(C)CC12NC(=O)N(Nc1ccc([N+](=O)[O-])cc1[N+](=O)[O-])C2=O (stereo not given)
ED50 [25]: 126 mg/kg

Cc1nc(NC(=O)Nc2ccccc2)sc1C(=O)NNC(=O)Nc1ccccc1
Activity [26]: 14.8%

COc1cc(NC(C)CCCNC(=O)NNC(=O)/C=C/c2ccc3c(c2)OCO3)c2ncccc2c1 (stereo not given)
pIC50 [5]: 7.52

COc1cc(NC(C)CCCNC(=O)NNC(=O)/C=C/c2cccc(C(F)(F)F)c2)c2ncccc2c1 (stereo not given)
pIC50 [5]: 7.52

CCOC(=O)C1(NC(=O)NNS(=O)(=O)c2ccccc2Cl)CC1(C)C (stereo not given)
ED50 [1]: 82.6 mg/kg | ED50 [9]: 82.6 mg/kg

COc1cc(/C=C2\N=C(C)N(NC(=O)N3c4ccccc4C=Cc4ccccc43)C2=O)ccc1O
Activity [3]: 73.9%

Cc1nc(-c2cccnc2)ccc1C(=O)NNC(=O)Nc1c(Cl)cc(Cl)cc1Cl
pIC50 [21]: 5.05 | pIC50 [22]: 5.05

O=C(NNC(=O)n1nnc2ccccc21)NC1CCCCC1
pIC50 [2]: 4.10

CNC(=O)c1cc(Oc2ccc(NC(=O)Nc3ccc(Cl)c(C(F)(F)F)c3)cc2)ccn1 [SORAFENIB]
pIC50 [11]: 4.77

COc1cc(NC(C)CCCNC(=O)NNC(=O)NC(=O)c2ccccc2)c2ncccc2c1 (stereo not given)
pIC50 [17]: 5.82 | pIC50 [18]: 5.40 | pIC50 [19]: 6.00

O=C(NO)NNC(=O)n1nnc2ccccc21
pIC50 [2]: 4.10

COc1cc(NC(C)CCCNC(=O)NNC(=O)NOC(=O)c2ccccc2)c2ncccc2c1 (stereo not given)
pIC50 [17]: 5.82 | pIC50 [18]: 5.40 | pIC50 [19]: 6.00

COc1cc(NC(C)CCCNC(=O)NNC(=O)NO)c2ncccc2c1 (stereo not given)
pIC50 [17]: 5.82 | pIC50 [18]: 5.40 | pIC50 [19]: 6.00

CNC(=O)NNC(=O)c1ccc(Cl)cc1
pIC50 [13]: 4.66

NNC(=O)Nc1nc2ccccc2o1
pIC50 [27]: 3.66

CC(C)N1C(=O)C(=O)N(NCC(=O)N(c2ccccc2)C2(C(N)=O)CCCC2)C1=O
ED50 [1]: 34.4 mg/kg

COc1cc(NC(C)CCCNC(=O)NNC(=O)NC2CCCCC2)c2ncccc2c1 (stereo not given)
pIC50 [17]: 5.82 | pIC50 [18]: 5.40 | pIC50 [19]: 6.00

CCCCNC(=O)NNC(=O)c1ccc(Nc2nccc(-c3ccncc3)n2)cc1
pIC50 [10]: 5.08 | pIC50 [11]: 5.66 | pEC50 [12]: 5.98

O=C(NNC(=O)c1cc2ccccc2[nH]1)Nc1ccc(Cl)c(C(F)(F)F)c1
pIC50 [4]: 5.92
